Read-outs that look alike come from different tables or passages of the source.
Key:
[1] = test system: Carrageenin-induced hind paw oedema in rats; test: Carrageenin-induced hind paw oedema in rats (CAR method), acute inflammation; type: in vivo; details: Rattus norvegicus, po, read-out: Anti-inflammatory activity ED50, acute inflammation, CAR
Description: (§1) (1) Effect on acute inflammation:
(a) Carrageenin-induced hind paw oedema in rats (CAR method)
The test was carried out according to the method described in Proc. Soc. Exp. Biol. Med., 111, 544 (1962).

[2] = test system: Ultraviolet-induced erythema in guinea-pigs; test: Ultraviolet-induced erythema in guinea-pigs (UVE method), acute inflammation; type: in vivo; details: Cavia porcellus, po, read-out: Anti-inflammatory activity ED50, acute inflammation, UVE
Description: as §1
(b) Ultraviolet-induced erythema in guinea-pigs (UVE method)
The test was carried out according to the method described in Arch. Int. Pharmacodyn. Ther., 116, 261 (1958).

[3] = test system: adjuvant-induced arthritis in rats; test: Therapeutic activity on adjuvant-induced arthritis in rats (AAT method), subacute and chronic inflammation; type: in vivo; details: Rattus norvegicus, po, read-out: Minimum Effective Dose, subacute and chronic inflammation, AAT*
Description: (§2) (2) Effect on subacute and chronic inflammations:
(a) Therapeutic activity on adjuvant-induced arthritis in rats (AAT method)
The test was carried out according to the method described in Brit. J. Pharmacol., 21, 127 (1963) and Japan J. Pharmacol., 23, 58 (1973).

[4] = test system: Felt pellet-induced granuloma formation in rats; test: Felt pellet-induced granuloma formation in rats (FGF method), subacute and chronic inflammation; type: in vivo; details: Rattus norvegicus, po, read-out: Minimum Effective Dose, subacute and chronic inflammation, FGF*
Description: as §2
(b) Felt pellet-induced granuloma formation in rats (FGF method)
The test was carried out according to the method described in J. Amer. Pharm. Assoc., 46, 515 (1957) and Chem. Pharm. Bull., 23, 1446 (1975).

[5] = test system: AgNO3-induced joint pain in rats; test: AgNO3-induced joint pain in rats (AGP method), analgesic activity; type: in vivo; details: Rattus norvegicus, po, read-out: Analgesic activity ED50, AGP
Description: (§3) TEST 2. ANALGESIC ACTIVITY
(a) AgNO3 -induced joint pain in rats (AGP method)
The test was carried out according to the method described in J. Pharmacol. Expt. Ther., 98, 19 (1950)

[6] = test system: Acetic acid (AcOH)-induced writhing in rats; test: Acetic acid (AcOH)-induced writhing in rats (ACW method), analgesic activity; type: in vivo; details: Rattus norvegicus, po, read-out: Analgesic activity ED50, ACW
Description: as §3
(b) Acetic acid (AcOH)-induced writhing in rats (ACW method)
The test was carried out according to the method described in Arzneim. Forsch., 25, 1505 (1975).

[7] = test system: Yeast-induced fever in rats; test: Yeast-induced fever in rats (YEF method), antipyretic activity; type: in vivo; details: Rattus norvegicus, po, read-out: Antipyretic activity ED50, YEF
Description: TEST 3. ANTIPYRETIC ACTIVITY
Yeast-induced fever in rats (YEF method)
The test was carried out according to the method described in Arzneim. Forsch., 13, 338 (1963).

[8] = Gastrointestinal ulcer formation in fed rats (ulcerogenicity); type: in vivo; details: rat, in vivo, po, fed rats; read-out: UD50 (50% ulcer forming dose)
Description: (§4) TEST 4. ULCEROGENICITY IN GASTROINTESTINAL TRACT
(§5) Gastrointestinal ulcer formation in fed rats
(§6) The test was carried out according to the method described in Science, 170, 183 (1970).

in vivo [9] = details: rat, po
in vivo [10] = details: rat, po; remark: listed apart in the source
Description: (§7) (b) Repeated administrations in rats
(§8) Test compounds were orally administered once daily for 5 days, and LD50 -value was calculated from the mortality on the 6th day.

[11] = Overall comparison of anti-inflammatory, analgesic and antipyretic activities (Tests 1 to 3); type: in vivo, rats; guinea-pigs; details: for anti-inflammatory, analgesic and antipyretic activities compared with indomethacin: vs indomethacin (compound 3)
Text: (§9) From these diagrams, the correlation between the pharmacological activity of each compound and its ulcerogenicity and toxicity, i.e. the safety margin of each compound, can be clearly seen. In these Figures, the lines and letters have the following meanings:
(§10) The following conclusions can be drawn from Tables I to III and FIGS. 1 and 2. In the following description, the therapeutic index means LD50 /ED50 (or MED), and the safety index means UD50 /ED50 (or MED). The safety margin of a given compound is broader when it has larger therapeutic and or safety indices.

[12] = type: in vivo; details: for therapeutic index compared with indomethacin: vs indomethacin
Text: In the following description, the therapeutic index means LD50 /ED50 (or MED), and the safety index means UD50 /ED50 (or MED).

[13] = Safety index (UD50/ED50 or MED), separation of activity from ulcerogenicity; type: in vivo; details: for separation of anti-inflammatory, analgesic and antipyretic activities from ulcerogenicity: FIGS. 1 and 2, vs indomethacin
Text: as §9, §10

rats = test: Overall comparison of lethal toxicity (Test 5); type: in vivo; details: for toxicity compared with indomethacin (in words): vs indomethacin
Description: (a) Single administration in rats
as §7, §8

[14] = test system: Gastrointestinal ulcer formation in fed rats; test: Gastrointestinal ulcer formation in fed rats (ulcerogenicity); type: in vivo; details: fraction of that of compound 2
Description: as §4, §5, §6

[15] = rats, single administration, 7th day, read-out: LD50 Single
[16] = rats, once daily for 5 days, mortality on 6th day, read-out: LD50 Repeated

Compound	ED50 [1]	ED50 [2]	minimal effective dose [3]	minimal effective dose [4]	ED50 [5]	ED50 [6]	ED50 [7]	TD50 [8]	LD50 at 168 h (in vivo [9]; [15])	LD50 at 144 h (in vivo [10]; [16])	toxicity compared with indomethacin (in words) (rats)	ED50 ([1]; rats, CAR method)	further results
Cc1ccc2c(c1)CC(=O)c1cc(C(C)C(=O)O)ccc1O2 (racemic) [compound A, dl-2-(8-Methyl-10,11-dihydro-11-oxodibenz[b,f]oxepin-2-yl)propionic acid]	3.38 mg/kg	0.3 mg/kg	0.2 mg/kg/day	2 mg/kg/day	2.6 mg/kg	0.28 mg/kg	0.021 mg/kg	2.97 mg/kg	147 mg/kg	> 12 mg/kg	far weaker than those of indomethacin	–	pharmacological activities compared with compound 1 ([11]; vs compound 1): stronger pharmacological activities in all the methods tested; pharmacological potency and/or safety margin compared with compound 1 ([11]; vs compound 1): superior to compound 1 not only in pharmacological activities but also in safety margin; anti-inflammatory, analgesic and antipyretic activities compared with indomethacin [11]: equivalent or superior to those of indomethacin; average therapeutic index relative to compound 1 ([12]; LD50/ED50 (or MED), vs compound 1): about 3.7 times; therapeutic index compared with indomethacin [12]: far larger therapeutic indices than indomethacin; separation of anti-inflammatory, analgesic and antipyretic activities from ulcerogenicity [13]: more separated from ulcerogenicity in the gastrointestinal tract than in indomethacin; average safety index relative to compound 1 ([13]; UD50/ED50 (or MED), vs compound 1): about 1.6 times; toxicity relative to compound 1 (rats; vs compound 1): less toxic than compound 1
CC(C(=O)OCCOCCO)c1ccc2c(c1)C(=O)Cc1ccccc1O2 (racemic) [compound D, 2-(2-Hydroxyethoxy)ethyl dl-2-(10,11-dihydro-11-oxodibenz[b,f]oxepin-2-yl)propionate]	–	–	–	–	–	–	–	–	–	–	far weaker than those of indomethacin	2.87 mg/kg	ED50 ([2]; guinea-pigs, UVE method): 1.5 mg/kg; minimal effective dose ([3]; rats, AAT method): 1 mg/kg/day; minimal effective dose ([4]; rats, FGF method): 6 mg/kg/day; ED50 ([5]; rats, AGP method): 4.6 mg/kg; ED50 ([6]; rats, ACW method): 1.06 mg/kg; ED50 ([7]; rats, YEF method): 0.112 mg/kg; LD50 at 168 h (in vivo [9]): 260 mg/kg; LD50 at 144 h (in vivo [10]): > 24 mg/kg; activity on subacute and chronic inflammation compared with indomethacin ([11]; AAT and FGF, vs indomethacin): inferior to that of indomethacin; anti-inflammatory (acute), analgesic and antipyretic activities compared with indomethacin ([11]; acute inflammation, analgesic, antipyretic, vs indomethacin): almost equivalent to those of indomethacin; pharmacological activities compared with compound 1 ([11]; vs compound 1): comparable to those of compound 1
Cc1ccc2c(c1)CC(=O)c1cc(C(C)C(=O)OCCOCCO)ccc1S2 (racemic) [compound G, 2-(2-Hydroxyethoxy)ethyl dl-2-(8-methyl-10,11-dihydro-11-oxodibenzo[b,f]thiepin-2-yl)propionate]	5.94 mg/kg	2.52 mg/kg	≤ 0.2 mg/kg/day	–	0.96 mg/kg	0.33 mg/kg	0.041 mg/kg	2.94 mg/kg	–	> 16 mg/kg	far weaker than those of indomethacin	–	ulcerogenicity relative to compound 2 [14]: about 1/5; analgesic activity compared with compounds 2 and C ([11]; AGP, ACW, vs compounds 2 and C): stronger than those of compounds 2 and C; antiinflammatory and antipyretic activities compared with compounds 2 and C ([11]; vs compounds 2 and C): weaker than those of compounds 2 and C; anti-inflammatory, analgesic and antipyretic activities compared with indomethacin [11]: equivalent or superior to those of indomethacin; average therapeutic index relative to compound 2 ([12]; LD50/ED50 (or MED), vs compound 2): more than 8 times; breadth of safety margin compared with compound 2 ([12]; safety margin, vs compound 2): far superior to compound 2; therapeutic index compared with indomethacin [12]: far larger therapeutic indices than indomethacin; separation of anti-inflammatory, analgesic and antipyretic activities from ulcerogenicity [13]: more separated from ulcerogenicity in the gastrointestinal tract than in indomethacin; average safety index relative to compound 2 ([13]; UD50/ED50 (or MED), vs compound 2): about 5 times; toxicity relative to compound 2 (rats; fraction of that of compound 2): less than 1/7
CC(C(=O)O)c1ccc2c(c1)C(=O)Cc1ccccc1O2 (stereo not drawn) [compound 1, 2-(10,11-dihydro-11-oxodibenz[b,f]oxepin-2-yl)propionic acid, reference compound]	3.65 mg/kg	0.93 mg/kg	1 mg/kg/day	3 mg/kg/day	5.8 mg/kg	–	0.062 mg/kg	4.85 mg/kg	106 mg/kg	–	–	–	–
CC(C(=O)O)c1ccc2c(c1)C(=O)Cc1ccccc1S2 (stereo not drawn) [compound 2, 2-(10,11-dihydro-11-oxodibenzo[b,f]thiepin-2-yl)propionic acid, reference compound]	1.2 mg/kg	0.98 mg/kg	< 0.1 mg/kg/day	0.25 mg/kg/day	1.66 mg/kg	1.16 mg/kg	0.022 mg/kg	0.62 mg/kg	–	2.15 mg/kg	–	–	–
COc1ccc2c(c1)c(CC(=O)O)c(C)n2C(=O)c1ccc(Cl)cc1 [compound 3, indomethacin, reference compound]	3.3 mg/kg	9.12 mg/kg	0.2 to 0.4 mg/kg/day	2 mg/kg/day	4.1 mg/kg	0.44 mg/kg	0.223 mg/kg	3.95 mg/kg	18.5 mg/kg	~5 mg/kg	–	–	–
Cc1ccc2c(c1)CC(=O)c1cc(CC(=O)O)ccc1O2 [compound B, 8-Methyl-10,11-dihydro-11-oxodibenz[b,f]oxepin-2-acetic acid]	–	–	–	–	–	–	–	–	–	–	–	2.2 mg/kg	ED50 ([2]; guinea-pigs, UVE method): 4.48 mg/kg; minimal effective dose ([4]; rats, FGF method): 20 mg/kg/day; ED50 ([7]; rats, YEF method): 0.357 mg/kg; activity on acute inflammation and fever compared with indomethacin ([11]; acute inflammation and fever, vs indomethacin): nearly comparable to that of indomethacin
Cc1ccc2c(c1)CC(=O)c1cc(CC(=O)OCCOCCO)ccc1O2 [compound F, 2-(2-Hydroxyethoxy)ethyl 8-methyl-10,11-dihydro-11-oxodibenz[b,f]oxepin-2-acetate]	–	–	–	–	–	–	–	–	–	–	–	7.95 mg/kg	–
